Reference: patent publication US20250041461A1, “[177LU] LUTETIUM-PSMA I&T COMPOSITION AND DOSIMETRY, KIT, METHOD OF MAKING, AND METHOD OF USING THEREOF” (Curium US LLC, priority 2023, published 2025)
Values joined by “and” are separate entries in the source; they are usually repeats but may differ in a detail not shown here. Equal entries are not always repeated.

Experiment: Dosimetry sub-study, first 6 patients, cycle 1 (SPECT/CT, TIAC, OLINDA 2.2.3)
Type: in vivo, human
Conditions: for projected cumulative absorbed dose to the kidneys after 6 cycles: 7.4 GBq per cycle, number of cycles x absorbed dose at cycle 1
Description: Six subjects were administered a target dose of 7.4 GBq (mean 7.52±0.16 GBq) of ^177Lu-PSMA-I&T. Following the infusion, subjects underwent single photon emission computed tomography (SPECT)/computed tomography (CT) imaging at four timepoints (4 h, 24 h, 48 h, 168 h). Image data were analysed to compute time integrated activity coefficients (TIAC) in each organ of interest and/or with appreciable and meaningful ^177Lu-PSMA-I&T activity above background which included kidneys, bladder, liver, lumbar vertebrae L2-L4, lacrimal glands, salivary glands, intestine and whole body. To compute subject-specific organ doses, organ-level TIAC data were entered into Organ Level Internal Dose Assessment, OLINDA 2.2.3 and resulting organ doses for each target organ and whole-body effective dose were collated and averaged.
Patients received SPECT/CT imaging (anatomical coverage included the salivary gland and extended through the pelvis) following the injection of 7.4 (+/−10%) GBq of ^177Lu-PSMA-I&T (detailed injected doses are reported). All patients completed the first treatment cycle and the acquisition of images was carried out without any protocol deviation.
The imaging data was analyzed using Invicro's VivoQuant software, a validated software used in a 21 CFR § 11-compliant workflow. The general quantification approach was based on the principles detailed in MIRD Pamphlet No. 16 (Siegel J, Thomas S, Stubbs J, et al. MIRD pamphlet no. 16: Techniques for quantitative radiopharmaceutical biodistribution data acquisition and analysis for use in human radiation dose estimates. J Nucl Med. 1999; 40:37S-61S and MIRD Primer for Absorbed Dose Calculations, Revised Ed. J Nucl Med. 1991), No 23 (Dewaraja Y K, Frey E C, Sgouros G, et al. MIRD pamphlet No. 23: quantitative SPECT for patient-specific 3-dimensional dosimetry in internal radionuclide therapy. J Nucl Med. 2012; 53(8):1310-1325), and No 26 (Ljungberg M, Celler A, Konijnenberg M W, et al. MIRD Pamphlet No. 26: Joint EANM/MIRD Guidelines for Quantitative ^177Lu SPECT Applied for Dosimetry of Radiopharmaceutical Therapy. J Nucl Med. 2016; 57(1):151-162), as appropriate.
Each SPECT image was co-registered with its corresponding CT. Image calibration was performed to convert the counts measured on the SPECT images to activity (Bq) (Ljungberg et al. MIRD Pamphlet No. 26: Joint EANM/MIRD Guidelines for Quantitative ^177Lu SPECT Applied for Dosimetry of Radiopharmaceutical Therapy. J Nucl Med. 2016; 57(1):151-162). The same SPECT/CT system was used in each patient for the entirety of the dosimetry study.
Regions of interest (kidneys, bladder, liver, lumbar vertebrae L2-L4, lacrimal glands, salivary glands and whole body) were drawn on each dataset by a trained image analyst. Lumbar vertebrae L2-L4 was delineated on the CT images (Hindorf C, Glatting G, Chiesa C, Linden O, Flux G, Committee ED. EANM Dosimetry Committee guidelines for bone marrow and whole-body dosimetry. Eur J Nucl Med Mol Imaging. 2010; 37(6):1238-1250) to derived red marrow doses. For kidneys, an ROI was drawn on the SPECT image to include all the uptake seen in the kidneys. Similarly for lacrimal glands, all the uptake observed on the SPECT image at the lacrimal glands location was segmented.
Time-activity curves of the activity in each ROI as a function of time were plotted. These curves were normalized by the known injected activity to arrive at units of fraction of injected activity. Calculations of time-integrated activity coefficient (TIAC, in units of hours) were performed for each region of interest listed above.
Clearance of the tracer was derived from a data-appropriate fit of each organ TAC. The curve fit was optimized using the Akaike information criterion (AIC) and checked visually by an image scientist. Depending on the shape of the TAC, the data was fitted with the sum of one, two or three exponentials or using a rise and fall model. […]

Structure (SMILES): O=C([O-])CC[C@H](NC(=O)N[C@@H](CCCCNC(=O)CCCCCCC(=O)NCCCC[C@@H](NC(=O)[C@@H](Cc1ccccc1)NC(=O)[C@@H](Cc1ccc(O)c(I)c1)NC(=O)CC[C@H](C(=O)[O-])N1CCN(CC(=O)[O-])CCN(CC(=O)[O-])CCN(CC(=O)[O-])CC1)C(=O)[O-])C(=O)[O-])C(=O)[O-].[177Lu+3].[H+].[H+].[H+].[H+].[H+] [^177Lu-PSMA I&T, (3S,7S,26R,29R,32R,37R)-29-benzyl-32-(4-hydroxy-3-iodobenzyl)-5,13,20,28,31,34-hexaoxo-37-(4,7,10-tris(carboxymethyl)-1,4,7,10-tetraazacyclododecan-1-yl)-4,6,12,21,27,30,33-heptaazaheptatriacontane-1,3,7,26,37-pentacarboxylic acid; lutetium-177 (III)]
- Absorbed Dose, Adrenals, Mean (6 patients, cycle 1): 0.02 Gy/GBq
- Absorbed Dose, Brain, Mean (6 patients, cycle 1): 0.01 Gy/GBq
- Absorbed Dose, Esophagus, Mean (6 patients, cycle 1): 0.01 Gy/GBq
- Absorbed Dose, Eyes, Mean (6 patients, cycle 1): 0.01 Gy/GBq
- Absorbed Dose, Gallbladder wall, Mean (6 patients, cycle 1): 0.02 Gy/GBq
- Absorbed Dose, Heart wall, Mean (6 patients, cycle 1): 0.01 Gy/GBq
- Absorbed Dose, Kidneys, Mean (6 patients, cycle 1): 0.46 Gy/GBq
- Absorbed Dose, Left colon, Mean (6 patients, cycle 1): 0.39 Gy/GBq
- Absorbed Dose, Liver, Mean (6 patients, cycle 1): 0.03 Gy/GBq
- Absorbed Dose, Lungs, Mean (6 patients, cycle 1): 0.01 Gy/GBq
- Absorbed Dose, Osteogenic cells, Mean (6 patients, cycle 1): 0.02 Gy/GBq
- Absorbed Dose, Pancreas, Mean (6 patients, cycle 1): 0.02 Gy/GBq
- Absorbed Dose, Prostate, Mean (6 patients, cycle 1): 0.02 Gy/GBq
- Absorbed Dose, Rectum, Mean (6 patients, cycle 1): 0.37 Gy/GBq
- Absorbed Dose, Red Marrow, Mean (6 patients, cycle 1): 0.02 Gy/GBq
- Absorbed Dose, Right colon, Mean (6 patients, cycle 1): 0.21 Gy/GBq
- Absorbed Dose, Salivary Glands, Mean (6 patients, cycle 1): 0.10 Gy/GBq
- Absorbed Dose, Small intestine, Mean (6 patients, cycle 1): 0.05 Gy/GBq
- Absorbed Dose, Spleen, Mean (6 patients, cycle 1): 0.02 Gy/GBq
- Absorbed Dose, Stomach Wall, Mean (6 patients, cycle 1): 0.01 Gy/GBq
- Absorbed Dose, Testes, Mean (6 patients, cycle 1): 0.01 Gy/GBq
- Absorbed Dose, Thymus, Mean (6 patients, cycle 1): 0.01 Gy/GBq
- Absorbed Dose, Thyroid, Mean (6 patients, cycle 1): 0.01 Gy/GBq
- Absorbed Dose, Total Body, Mean (6 patients, cycle 1): 0.02 Gy/GBq
- Absorbed Dose, Urinary Bladder wall, Mean (6 patients, cycle 1): 0.37 Gy/GBq
- absorbed dose, kidneys (6 patients, cycle 1): 0.46±0.23 Gy/GBq
- absorbed dose, lacrimal glands (6 patients, cycle 1): 0.77±0.25 Gy/GBq
- absorbed dose, left colon (6 patients, cycle 1): 0.39±0.32 Gy/GBq
- absorbed dose, rectum (6 patients, cycle 1): 0.37±0.31 Gy/GBq
- absorbed dose, right colon (6 patients, cycle 1): 0.21±0.17 Gy/GBq
- absorbed dose, salivary glands (6 patients, cycle 1): 0.10±0.06 Gy/GBq
- absorbed dose, urinary bladder wall (6 patients, cycle 1): 0.37±0.20 Gy/GBq
- Whole-body time integrated activity coefficient, mean (6 patients, cycle 1, 7.4 GBq, SD 6.7): 16.6 h
- projected cumulative absorbed dose to the kidneys after 6 cycles (6 patients): 20.4±10.2 Gy
- projected cumulative absorbed dose to the kidneys after 6 cycles (6 patients, listed as 177Lu-PSMA-I&T): 20.4 Gy
- risk of kidney toxicities with 6 treatment cycles (conclusion from dosimetry results): possible without the risk of kidney toxicities
- Effective Dose Cycle 1 (individual patients (one per Subject ID)): 9.03E−02 mSv/MBq and 3.11E−02 mSv/MBq and 1.11E−01 mSv/MBq and 6.97E−02 mSv/MBq and 8.11E−02 mSv/MBq and 2.68E−02 mSv/MBq
- Kidneys Absorbed Dose (Gy/GBq) (individual patients (one per Subject ID), cycle 1): 0.27 Gy/GBq and 0.22 Gy/GBq and 0.48 Gy/GBq and 0.64 Gy/GBq and 0.34 Gy/GBq and 0.81 Gy/GBq
- Kidneys Absorbed Dose (Gy) (individual patients (one per Subject ID), cycle 1, actual injected dose): 2.03 Gy and 1.68 Gy and 3.62 Gy and 4.87 Gy and 2.56 Gy and 5.82 Gy
- Kidneys Absorbed Dose (Gy) Assuming 7.4 GBq per cycle (individual patients (one per Subject ID), one cycle): 4.8 Gy and 2.5 Gy and 6.0 Gy and 2.0 Gy and 1.7 Gy and 3.6 Gy
- Extrapolation of Absorbed Dose to 6 Cycles (Gy) Assuming 7.4 GBq per cycle (kidneys, individual patients (one per Subject ID)): 28.5 Gy and 15.0 Gy and 35.8 Gy and 11.8 Gy and 9.9 Gy and 21.3 Gy
- Extrapolation of Absorbed Dose to 6 Cycles (Gy) Assuming 7.4 GBq per cycle, mean (kidneys, mean of 6 patients): 20.4 Gy
- Kidneys Absorbed Dose (Gy), Mean (mean of 6 patients, cycle 1): 3.43 Gy
- Kidneys Absorbed Dose (Gy/GBq), Mean (mean of 6 patients, cycle 1): 0.46 Gy/GBq
- Whole Body TIAC (time integrated activity coefficient), Mean (mean of 6 patients, cycle 1): 16.6 h
- Kidneys Absorbed Dose (Gy) Assuming 7.4 GBq per cycle, mean (mean of 6 patients, one cycle): 3.4 Gy
